Data published in patent publication US10287305B2, “Substituted piperidine compound and use thereof” (Takeda Pharmaceutical Company Limited, priority 2016, dated 2019).

Biological target: human orexin type 2 receptor (hOX2R) (Homo sapiens (Human), UniProt O43614)
Experiment: Measurement of orexin type 2 receptor agonist activity (Experimental Example 2-1, FLIPR TETRA, intracellular Ca2+)
Assay type: cell-based
Conditions: CHO dhfr- cells expressing hOX2R; for Emax at 30 µM: value at 30 uM concentration, orexin B as full agonist = 100%
From the text: To obtain a cell clone stably expressing human orexin type 2 receptor, human orexin type 2 receptor cDNA was inserted into pcDNA3.1(+) plasmid vector (Invitrogen), and a plasmid DNA for expression of human orexin type 2 receptor (pcDNA3.1(+)/hOX2R) was cloned. The plasmid DNA was introduced into CHO-dhfr cell by an electroporation method, and human orexin type 2 receptor expressing clone cells were obtained by limiting dilution method by using G418 drug resistance as a selection marker.
Chinese hamster ovary (CHO) dhfr-cells forcibly expressing human orexin type 2 receptor (hOX2R) were seeded in each well of Black clear bottom plate (384 wells) (Becton, Dickinson and Company) by 10,000 cells, and cultured for 16 hr in an MEM-alpha (Nikken-Bio Co., Ltd.) medium containing 100 U/ml penicillin, 100 μg/ml streptomycin, […] G418 (all above Invitrogen), and 10% fetal calf serum (Thermo), under the conditions of 37° C., 5% CO2. […] A test compound was dissolved in dimethyl sulfoxide to 10 mM, and then diluted with assay buffer 2 (20 mM HEPES, Hanks' balanced salt solution (Invitrogen), 0.1% bovine serum albumin). For the reaction, a test compound solution (10 μL) was added using Fluorescent Imaging Plate Reader TETRA (FLIPR TETRA; manufactured by Molecular Devices), a fluorescence value (excitation wavelength 488 nm, measurement wavelength 570 nm) of each well was measured every one second for 1 min, and the agonist activity was determined using the area of the fluorescence value as an indicator of intracellular Ca^2+ concentration.

[1] = agonist activity, 10 nM human orexin B = 100%

Chain of human orexin type 2 receptor (hOX2R) (O43614 whole entry): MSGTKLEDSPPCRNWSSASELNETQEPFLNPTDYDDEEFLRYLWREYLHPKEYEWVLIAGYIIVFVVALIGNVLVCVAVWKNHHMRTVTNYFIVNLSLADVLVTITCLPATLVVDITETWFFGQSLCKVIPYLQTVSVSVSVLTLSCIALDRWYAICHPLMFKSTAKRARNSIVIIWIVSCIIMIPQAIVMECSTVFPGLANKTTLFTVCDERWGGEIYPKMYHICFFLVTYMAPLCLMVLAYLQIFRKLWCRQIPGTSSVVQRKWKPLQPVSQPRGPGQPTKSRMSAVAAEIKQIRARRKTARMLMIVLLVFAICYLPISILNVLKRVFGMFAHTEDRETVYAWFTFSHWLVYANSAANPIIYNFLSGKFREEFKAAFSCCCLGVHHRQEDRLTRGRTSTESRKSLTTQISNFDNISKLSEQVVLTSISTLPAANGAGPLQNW

| EC50 [1] | Emax at 30 µM | EC50 (FLIPR TETRA, Fluo-4AM) | Emax (FLIPR TETRA, Fluo-4AM, read-out: Emax (%)) | Structure (SMILES) |
| --- | --- | --- | --- | --- |
| 59 nM | 93% | – | – | CCNC(=O)N1CCC[C@H](NS(C)(=O)=O)[C@@H]1CO[C@H]1C[C@@H](c2ccccc2)C1 (relative stereo) [Example 113, cis-N-ethyl-3-((methylsulfonyl)amino)-2-(((cis-3-phenylcyclobutyl)oxy)methyl)piperidine-1-carboxamide] |
| 3500 nM | 79% | – | – | CC(=O)N1CCC[C@H](NS(C)(=O)=O)[C@@H]1CO[C@H]1C[C@@H](c2ccccc2)C1 (relative stereo) [Example 114, N-(cis-1-acetyl-2-(((cis-3-phenylcyclobutyl)oxy)methyl)-piperidin-3-yl)methanesulfonamidea] |
| 770 nM | 97% | – | – | CS(=O)(=O)N[C@H]1CCCN[C@H]1CO[C@H]1CC[C@@H](c2ccccc2F)CC1 (relative stereo) [Example 115, N-(cis-2-(((cis-4-(2-fluorophenyl)cyclohexyl)oxy)methyl)piperidin-3-yl)methanesulfonamide] |
| 0.12 nM | 91% | – | – | CCNC(=O)N1CCC[C@H](NS(C)(=O)=O)[C@@H]1CO[C@H]1CC[C@@H](c2ccccc2F)CC1 (relative stereo) [Example 117, cis-N-ethyl-2-(((cis-4-(2-fluorophenyl)cyclohexyl)oxy)-methyl)-3-((methylsulfonyl)amino)piperidine-1-carboxamide] |
| 4.6 nM | 105% | – | – | CCNC(=O)N1CCC[C@H](NS(C)(=O)=O)[C@@H]1COC1CCN(c2ncccn2)CC1 (relative stereo) [Example 118, cis-N-ethyl-3-((methylsulfonyl)amino)-2-(((1-(pyrimidin-2-yl)piperidin-4-yl)oxy)methyl)piperidine-1-carboxamide] |
| 30 nM | 107% | – | – | COCC(=O)N1CCC[C@H](NS(C)(=O)=O)[C@@H]1CO[C@H]1CC[C@@H](c2ccccc2)CC1 (relative stereo) [Example 119, N-(cis-1-(methoxyacetyl)-2-(((cis-4-phenylcyclohexyl)oxy)methyl)piperidin-3-yl)methanesulfonamide] |
| 61 nM | 96% | – | – | CS(=O)(=O)N[C@H]1CCCN(C(=O)C2COC2)[C@H]1CO[C@H]1CC[C@@H](c2ccccc2)CC1 (relative stereo) [Example 120, N-(cis-1-(oxetan-3-ylcarbonyl)-2-(((cis-4-phenylcyclohexyl)oxy)methyl)piperidin-3-yl)methanesulfonamide] |
| – | – | 8.8 nM | 111% | CS(=O)(=O)N[C@H]1CCCN(C(=O)C2CCOCC2)[C@H]1CO[C@H]1CC[C@@H](c2ccccc2)CC1 (relative stereo) [Example 121, N-(cis-2-(((cis-4-phenylcyclohexyl)oxy)methyl)-1-(tetrahydro-2H-pyran-4-ylcarbonyl)piperidin-3-yl)methanesulfonamide] |

Further lines, the molecule ahead of its results:

| Structure (SMILES) | EC50 [1] | Emax at 30 µM | EC50 (FLIPR TETRA, Fluo-4AM) | Emax (FLIPR TETRA, Fluo-4AM, read-out: Emax (%)) |
| --- | --- | --- | --- | --- |
| CCNS(=O)(=O)N[C@H]1CCCN(C(C)=O)[C@H]1CO[C@H]1CC[C@@H](C(C)C)CC1 (relative stereo) [Example 79, N-(cis-1-acetyl-2-(((cis-4-isopropylcyclohexyl)oxy)methyl)piperidin-3-yl)-N′-ethylsulfuric diamide] | 330 nM | 85% | – | – |
| CC(=O)N1CCC[C@H](NS(=O)(=O)C(F)(F)F)[C@@H]1CO[C@H]1CC[C@@H](C(C)C)CC1 (relative stereo) [Example 80, N-(cis-1-acetyl-2-(((cis-4-isopropylcyclohexyl)oxy)methyl)piperidin-3-yl)-1,1,1-trifluoromethanesulfonamide] | 660 nM | 98% | – | – |
| CC(C)[C@H]1CC[C@@H](OC[C@H]2[C@@H](NS(C)(=O)=O)CCCN2C(=O)C2CN(S(C)(=O)=O)C2)CC1 (relative stereo) [Example 90, N-(cis-2-(((cis-4-isopropylcyclohexyl)oxy)methyl)-1-((1-(methylsulfonyl)azetidin-3-yl)carbonyl)piperidin-3-yl)methanesulfonamide] | 2800 nM | 74% | – | – |
| CC(C)[C@H]1CC[C@@H](OC[C@H]2[C@@H](NS(C)(=O)=O)CCCN2C(=O)Cn2cnccc2=O)CC1 (relative stereo) [Example 93, N-(cis-2-(((cis-4-isopropylcyclohexyl)oxy)methyl)-1-((6-oxopyrimidin-1(6H)-yl)acetyl)piperidin-3-yl)methanesulfonamide] | 2300 nM | 84% | – | – |
| CC(=O)N1CCC[C@H](NS(C)(=O)=O)[C@@H]1CO[C@H]1CC[C@@H](C(C)(C)F)CC1 (relative stereo) [Example 95, N-(cis-1-acetyl-2-(((cis-4-(2-fluoropropan-2-yl)cyclohexyl)oxy)methyl)piperidin-3-yl)methanesulfonamide] | 4300 nM | 89% | – | – |
| COCCNC(=O)N1CCC[C@H](NS(C)(=O)=O)[C@@H]1CO[C@H]1CC[C@@H](C(C)C)CC1 (relative stereo) [Example 96, cis-2-(((cis-4-isopropylcyclohexyl)oxy)methyl)-N-(2-methoxyethyl)-3-((methylsulfonyl)amino)piperidine-1-carboxamide] | 26 nM | 95% | – | – |
| CC(C)[C@H]1CC[C@@H](OC[C@H]2[C@@H](NS(C)(=O)=O)CCCN2C(=O)NCCO)CC1 (relative stereo) [Example 97, cis-N-(2-hydroxyethyl)-2-(((cis-4-isopropylcyclohexyl)oxy)methyl)-3-((methylsulfonyl)amino)piperidine-1-carboxamide] | 4.5 nM | 108% | – | – |
| CC(C)[C@H]1CC[C@@H](OC[C@H]2[C@@H](NS(C)(=O)=O)CCCN2C(=O)NCC(F)(F)F)CC1 (relative stereo) [Example 98, cis-2-(((cis-4-isopropylcyclohexyl)oxy)methyl)-3-((methylsulfonyl)amino)-N-(2,2,2-trifluoroethyl)piperidine-1-carboxamide] | – | 107% | – | – |
| CC(C)[C@H]1CC[C@@H](OC[C@H]2[C@@H](NS(C)(=O)=O)CCCN2C(=O)NC2CC2)CC1 (relative stereo) [Example 99, cis-N-cyclopropyl-2-(((cis-4-isopropylcyclohexyl)oxy)methyl)-3-((methylsulfonyl)amino)piperidine-1-carboxamide] | 13 nM | 112% | – | – |
| CCCNC(=O)N1CCC[C@H](NS(C)(=O)=O)[C@@H]1CO[C@H]1CC[C@@H](C(C)C)CC1 (relative stereo) [Example 100, cis-2-(((cis-4-isopropylcyclohexyl)oxy)methyl)-3-((methylsulfonyl)amino)-N-propylpiperidine-1-carboxamide] | 2.2 nM | 112% | – | – |
| CC(C)NC(=O)N1CCC[C@H](NS(C)(=O)=O)[C@@H]1CO[C@H]1CC[C@@H](C(C)C)CC1 (relative stereo) [Example 101, cis-N-isopropyl-2-(((cis-4-isopropylcyclohexyl)oxy)methyl)-3-((methylsulfonyl)amino)piperidine-1-carboxamide] | 2.3 nM | 115% | – | – |
| CC(=O)N1CCC[C@H](NS(C)(=O)=O)[C@@H]1CO[C@H]1CC[C@@H](C(F)(F)F)CC1 (relative stereo) [Example 106, N-(cis-1-acetyl-2-(((cis-4-(trifluoromethyl)cyclohexyl)oxy)methyl)piperidin-3-yl)methanesulfonamide] | 4800 nM | 89% | – | – |
| CCNC(=O)N1CCC[C@H](NS(C)(=O)=O)[C@@H]1CO[C@H]1CC[C@@H](C(F)(F)F)CC1 (relative stereo) [Example 107, cis-N-ethyl-3-((methylsulfonyl)amino)-2-(((cis-4-(trifluoromethyl)cyclohexyl)oxy)methyl)piperidine-1-carboxamide] | 120 nM | 75% | – | – |
| CN(C)S(=O)(=O)N[C@H]1CCCN[C@H]1CO[C@H]1CC[C@@H](c2ccccc2)CC1 (relative stereo) [Example 109, N,N-dimethyl-N′-(cis-2-(((cis-4-phenylcyclohexyl)oxy)methyl)piperidin-3-yl)sulfuric diamide] | 480 nM | 102% | – | – |
| CC(=O)N1CCC[C@H](NS(=O)(=O)N(C)C)[C@@H]1CO[C@H]1CC[C@@H](c2ccccc2)CC1 (relative stereo) [Example 111, N′-(cis-1-acetyl-2-(((cis-4-phenylcyclohexyl)oxy)methyl)piperidin-3-yl)-N,N-dimethylsulfuric diamide] | 13 nM | 97% | – | – |
| CC(=O)N1CCC[C@H](NS(C)(=O)=O)[C@@H]1CO[C@H]1CC[C@@H](c2ccc(F)cc2)CC1 (relative stereo) [Example 112, N-(cis-1-acetyl-2-(((cis-4-(4-fluorophenyl)cyclohexyl)oxy)methyl)piperidin-3-yl)methanesulfonamide] | 420 nM | 94% | – | – |
